Laboratory results from ChEMBL document CHEMBL1141793, “Antioxidant constituents of the aerial parts of Globularia alypum growing in Morocco” (J Nat Prod, 2005).

System: Radical scavenging activity
Assay: Antioxidant activity assessed as DPPH free radical scavenging activity after 30 mins by spectrophotometric assay

SMILES	IC50 [µM]
C[C@@H]1O[C@@H](OC[C@H]2O[C@@H](OCCc3ccc(O)c(O)c3)[C@H](O)[C@@H](O)[C@@H]2OC(=O)/C=C/c2ccc(O)c(O)c2)[C@H](O)[C@H](O)[C@H]1O [FORSYTHIASIDE]	21
O=c1cc(-c2ccc(O)c(O)c2)oc2cc(O[C@@H]3O[C@H](CO)[C@@H](O)[C@H](O[C@@H]4O[C@H](CO)[C@@H](O)[C@H](O)[C@H]4O)[C@H]3O)c(O)c(O)c12	8
O=C(/C=C/c1ccc(O)cc1)OC[C@H]1O[C@@H](OCCc2ccc(O)c(O)c2)[C@H](O)[C@@H](O)[C@@H]1O	18
C[C@@H]1O[C@@H](O[C@@H]2[C@@H](O)[C@H](OCCc3ccc(O)c(O)c3)O[C@H](CO)[C@H]2OC(=O)/C=C/c2ccc(O)c(O)c2)[C@H](O)[C@H](O)[C@H]1O [ACETOSIDE]	20
O=c1cc(-c2ccc(O)c(O)c2)oc2cc(O[C@@H]3O[C@H](CO)[C@@H](O)[C@H](O)[C@H]3O)c(O)c(O)c12	11
Cc1cc(C(C)(C)C)c(O)c(C(C)(C)C)c1 [BUTYLATED HYDROXYTOLUENE]	40
O=C1C[C@@H](c2ccc(O)c(O)c2)Oc2cc(O[C@@H]3O[C@H](CO)[C@@H](O)[C@H](O)[C@H]3O[C@@H]3O[C@H](CO)[C@@H](O)[C@H](O)[C@H]3O)cc(O)c21	12
O=c1cc(-c2ccc(O)c(O)c2)oc2cc(O[C@@H]3O[C@H](CO)[C@@H](O)[C@H](O)[C@H]3O[C@@H]3O[C@H](CO)[C@@H](O)[C@H](O)[C@H]3O)cc(O)c12	12
C[C@@H]1O[C@@H](O[C@@H]2[C@@H](O)[C@H](OCCc3ccc(O)c(O)c3)O[C@H](COC(=O)/C=C/c3ccc(O)c(O)c3)[C@H]2O)[C@H](O)[C@H](O)[C@H]1O [ISOACTEOSIDE]	20
